Data reported in ChEMBL document CHEMBL2176940, “Discovery of ligands for ADP-ribosyltransferases via docking-based virtual screening” (J Med Chem, 2012).

Target: T1, Protein mono-ADP-ribosyltransferase PARP15 (Homo sapiens) (UniProt Q460N3)
T1 sequence (whole entry): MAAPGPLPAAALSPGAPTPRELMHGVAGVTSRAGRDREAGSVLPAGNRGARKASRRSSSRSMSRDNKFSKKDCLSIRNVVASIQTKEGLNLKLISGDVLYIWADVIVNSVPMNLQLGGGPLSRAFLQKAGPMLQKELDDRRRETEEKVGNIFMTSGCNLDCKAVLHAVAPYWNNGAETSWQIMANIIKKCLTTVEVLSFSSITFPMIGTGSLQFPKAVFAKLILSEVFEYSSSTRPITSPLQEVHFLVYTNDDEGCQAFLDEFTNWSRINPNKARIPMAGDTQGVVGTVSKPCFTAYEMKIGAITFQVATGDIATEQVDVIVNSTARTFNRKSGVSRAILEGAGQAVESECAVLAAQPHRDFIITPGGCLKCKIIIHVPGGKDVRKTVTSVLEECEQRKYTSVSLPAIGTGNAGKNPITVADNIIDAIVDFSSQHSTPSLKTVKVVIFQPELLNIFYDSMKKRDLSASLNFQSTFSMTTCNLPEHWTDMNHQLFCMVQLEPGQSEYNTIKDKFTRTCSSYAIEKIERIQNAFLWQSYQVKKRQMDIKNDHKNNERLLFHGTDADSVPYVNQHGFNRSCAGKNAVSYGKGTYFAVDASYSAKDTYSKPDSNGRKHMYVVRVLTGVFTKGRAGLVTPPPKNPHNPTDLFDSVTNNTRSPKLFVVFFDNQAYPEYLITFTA
Description: Binding affinity at human recombinant ARTD7 expressed in Escherichia coli BL21 (DE3) R3 pRARE cells assessed as thermal stability shift by differential scanning fluorimetry

ΔTm: 0.8 °C
SMILES: NC(=O)c1cccc(NC(=O)/C=C\C(=O)O)c1
